# How the values were obtained:
# [1] = system: T24 cells; assay: Apoptosis/necrosis analysis (annexin V/PI), T24; type: cell-based, human; conditions: 18.50 μM, 48 h
# Experimental: Cells in the exponential growth phase were seeded in 12-well plates at a density of 1 × 10^5 cells per well in 3 mL of complete culture medium. Along with the experimental groups, four control groups were included: one without labeling, one labeled only with propidium iodide (PI), one labeled only with Annexin V, and one labeled with both PI and Annexin V. After 24 h, the cells were treated with the compound at concentrations of 2.15, 4.62, 9.25, and 18.50 μM for 48 h. Following the treatment period, the supernatant from each well was transferred to cytometry tubes and centrifuged at 1100 rpm for 10 min. The remaining adhered cells were washed with 1 mL of Hanks’ solution, and 500 μL of trypsin was added to detach the cells. The trypsin action was neutralized by adding 500 μL of complete medium, and the contents (detached cells plus precentrifuged supernatant) were collected into cytometry tubes, which were then centrifuged again at 1100 rpm for 10 min. After centrifugation, the supernatant was discarded. For labeling, Annexin V binding buffer was prepared by diluting 1 mL of component C in 5 mL of distilled water. Next, a 100 μg/mL propidium iodide working solution was prepared by diluting 5 μL of the 1 mg/mL stock (component B) in 45 μL of 1× buffer. […]
# [2] = system: HeLa: human cervical adenocarcinoma cells; assay: MTT cytotoxicity assay on HeLa cells; type: cell-based
# Experimental: Cytotoxicity was determined using the MTT colorimetric assay, and half-maximal inhibitory concentrations (IC50, μM) were obtained for all cell lines (Table ). The selectivity index (SI) was calculated as the ratio of IC50 MRC-5/IC50 cancer cell line. Doxorubicin was employed as a positive control due to its broad-spectrum clinical use, either alone or in combination, against hepatocellular, ovarian, cervical, and bladder cancers. −
# In vitro biological assays were performed by using five human cell lines for cytotoxicity evaluation. HepG2 cells (ATCC HB-8065), derived from a human hepatocellular carcinoma of the liver (person), were cultured in Dulbecco’s modified Eagle medium (DMEM) supplemented with 5% fetal bovine serum (FBS), penicillin/streptomycin (100 IU/mL), and amphotericin B (5 μg/mL), in a humidified incubator with 5% CO2 at 37 °C. These cells were plated at a concentration of 2.0 × 10^4 cells/well in 96-well microplates. MRC-5 cells (ATCC CCL-171), derived from human lung fibroblasts of a […] fetus, were cultured under the same conditions and plated at 1.0 × 10^4 cells/well. T24 cells (ATCC HTB-4), established from a transitional cell carcinoma of the bladder (person), were also cultured under identical conditions and plated at a density of 1.0 × 10^4 cells/well. TOV-21G cells (ATCC CRL-11730), derived from a primary malignant ovarian adenocarcinoma (person), were maintained in DMEM with the same supplementation and environmental conditions and plated at 5.0 × 10^4 cells/well. […]
# HeLa, HepG2, MRC-5, T24, and TOV-21G cells were suspended in a culture medium supplemented with 5% fetal bovine serum (FBS) and seeded into 96-well microplates. The plates were incubated under a humidified atmosphere containing 5% CO2 at 37 °C for 24 h, allowing for adherence and monolayer formation. , Eight serial dilutions of the test samples, previously solubilized in dimethyl sulfoxide (DMSO), were prepared in DMEM supplemented with 1% FBS, covering a concentration range from […], and the results were converted to […]. The volume of DMSO in each well was limited to a final concentration not exceeding 2%. Following monolayer formation, the culture medium was aspirated and replaced with 100 μL of the diluted test samples and 100 μL of DMEM containing 1% FBS. The plates were then incubated under the same atmospheric and temperature conditions.
# Two hours prior to end point reading, 20 μL of MTT [3-(4,5-dimethylthiazol-2-yl)-2,5-diphenyltetrazolium bromide] solution (1.0 mg/mL in sterile phosphate-buffered saline, Sigma-Aldrich) was added to each well. The incubation period following sample addition varied according to the cell line: 24 h for MRC-5, 48 h for T24, and 72 h for HeLa, HepG2, and TOV-21G. After the appropriate incubation, absorbance was measured by using a VICTOR X3 microplate reader (PerkinElmer), and data were processed with WorkOut 2.5 software at a wavelength of 490 nm. Formazan formation, resulting from the MTT reduction by metabolically active cells, was used as an indirect measure of cell viability. The percentage of cytotoxicity was calculated using the equation % cytotoxicity = [(A – B)/A] × 100, where A is the optical density (OD4 9 0) of untreated control cells and B is the OD4 9 0 of treated cells.
# Cytotoxicity was expressed as the 50% cytotoxic concentration (CC5 0), representing the concentration of sample required to reduce cell viability by 50% relative to that of the untreated control.
# [3] = system: T24 cells; assay: Clonogenic survival, T24; type: cell-based, human; conditions: 18.50 μM (maximum concentration tested), 48 h treatment, 10 days colony formation
# Experimental: The cells were cultured in DMEM (Sigma-Aldrich, St. Louis, USA) and supplemented with 10% fetal bovine serum (Cultilab Ltda., Campinas, Brazil) and antibiotics (amphotericin). They were incubated at 37 °C in a humidified atmosphere with 5% CO2. Control cell groups, which were not exposed to the compound, were included in the experiments and were conducted in triplicate. The chalcone was dissolved in dimethyl sulfoxide (DMSO) for the assays.
# The cells were trypsinized and plated into 24-well plates at a density of 1.0 × 10^5 cells/mL. Afterward, they were treated with the chalcone at concentrations of 2.15, 4.62, 9.25, and 18.50 μM for 48 h. Following treatment, the cells were washed with Hanks’ solution and trypsinized again, and approximately 1000 cells were reseeded into 12-well plates. These cells were incubated for 10 days in a CO2 incubator to allow colony formation. After the incubation period, the culture medium was removed, and the cells were washed with Hanks’ solution. Fixation was performed using 4% formaldehyde for 20 min, followed by […] in 100% methanol for 20 min. The cells were then stained with a 0.5% crystal violet solution prepared in 25% methanol. […] Absorbance was measured at 570 nm using a spectrophotometer, and the results were expressed as the percentage of colonies formed relative to the untreated control group.
structure (smiles),measurement,setting,value
"CCCc1cc(/C=C/C(=O)c2ccc(C)cc2)c(OC)c(OC)c1 [compound 3, (E)-3-(2,3-Dimethoxy-5-propylphenyl)-1-(p-tolyl)-prop-2-en-1-one]","cell viability (annexin V/PI), T24",[1],reduced cell viability
same,"proportion of cells undergoing early apoptosis, T24",[1],increased the proportion of cells undergoing early apoptosis
same,IC50,"[2]; Homo sapiens, HeLa, MTT, 72 h incubation, n = 3, NA: noncytotoxic at the concentrations tested",5.9 ± 1.6 µM
same,SI (HeLa),[2]; IC50 MRC-5/IC50 HeLa,9.3
same,"colony formation, T24",[3],significant effect was observed
